Where two headings read alike, the source gives them in different places.
Assays:
[1] = log Pow: distribution coefficient between 1-octanol and water; details: 1-octanol/water
Source text: Log Pow*=log Pow*−x*P′(x)/log Pow Formula 2: • where log Pow is the decimal logarithm of the distribution coefficient of a substance between 1-octanol and water, • x is the resulting solvent proportion based on the total volume proportion, normalized as 1.0, and • P′(x) is the polarity parameter for the corresponding solvent for the solvent proportion x.

[2] = log Pow* calculated by Formula 2 from log Pow and the polarity parameter P′(x) of the ethanol/water mixture
[3] = solvent ethanol, proportion 10%
[4] = solvent ethanol, proportion 30%
[5] = solvent ethanol, proportion 40%
[6] = solvent ethanol, proportion 50%
[7] = solvent ethanol, proportion 60%
[8] = solvent ethanol, proportion 70%
[9] = solvent ethanol, proportion 80%
[10] = solvent ethanol, proportion 90%
[11] = solvent ethanol, proportion 100%

| SMILES | log Pow [1] | log Pow* (P′ 2%) [2] | log Pow* (P′ 4%) [2] | log Pow* (P′ 6%) [2] | log Pow* (P′ 8%) [2] | log Pow* (P′ 10%) [2] | log Pow* (P′ 30%) [2] | log Pow* (P′ 40%) [2] | log Pow* (P′ 50%) [2] | log Pow* (P′ 60%) [2] | log Pow* (P′ 70%) [2] | log Pow* (P′ 80%) [2] | log Pow* (P′ 90%) [2] | log Pow* (P′ 100%) [2] | log Pow* (P′ 2%) ([2]; solvent ethanol, proportion 2%) | log Pow* (P′ 4%) ([2]; solvent ethanol, proportion 4%) | log Pow* (P′ 6%) ([2]; solvent ethanol, proportion 6%) | log Pow* (P′ 8%) ([2]; solvent ethanol, proportion 8%) | log Pow* (P′ 10%) [2, 3] | log Pow* (P′ 30%) [2, 4] | further results |
| --- | --- | --- | --- | --- | --- | --- | --- | --- | --- | --- | --- | --- | --- | --- | --- | --- | --- | --- | --- | --- | --- |
| C=CC(C)(O)CCC=C(C)C (centres unmarked) [Linalool] | 3.28 | 3.22 | 3.16 | 3.11 | 3.06 | 3.01 | 2.62 | 2.48 | 2.36 | 2.26 | 2.17 | 2.09 | 2.03 | 1.97 |  |  |  |  |  |  |  |
| CC/C=C\CC1C(=O)CCC1CC(=O)OC (centres unmarked) [Methyl jasmonate] | 2.12 | 2.03 | 1.94 | 1.85 | 1.77 | 1.70 | 1.10 | 0.88 | 0.69 | 0.54 | 0.40 | 0.29 | 0.18 | 0.09 |  |  |  |  |  |  |  |
| CCCCCC(=O)OC [Methylcapronate] | 2.30 |  |  |  |  |  |  |  |  |  |  |  |  |  | 2.21 | 2.13 | 2.05 | 1.98 | 1.91 | 1.36 | log Pow* (P′ 40%) [2, 5]: 1.15; log Pow* (P′ 50%) [2, 6]: 0.98; log Pow* (P′ 60%) [2, 7]: 0.84; log Pow* (P′ 70%) [2, 8]: 0.72; log Pow* (P′ 80%) [2, 9]: 0.61; log Pow* (P′ 90%) [2, 10]: 0.51; log Pow* (P′ 100%) [2, 11]: 0.43 |
| CS [Methylmercaptan] | 0.65 |  |  |  |  |  |  |  |  |  |  |  |  |  | 0.34 | 0.05 | −0.22 | −0.48 | −0.73 | −2.68 | log Pow* (P′ 40%) [2, 5]: −3.40; log Pow* (P′ 50%) [2, 6]: −4.00; log Pow* (P′ 60%) [2, 7]: −4.51; log Pow* (P′ 70%) [2, 8]: −4.95; log Pow* (P′ 80%) [2, 9]: −5.33; log Pow* (P′ 90%) [2, 10]: −5.67; log Pow* (P′ 100%) [2, 11]: −5.97 |
| CCCSSC [Methylpropyldisulfide] | 2.83 | 2.76 | 2.69 | 2.63 | 2.57 | 2.51 | 2.06 | 1.90 | 1.76 | 1.64 | 1.54 | 1.46 | 1.38 | 1.31 |  |  |  |  |  |  |  |
| C=C(C)[C@@H]1CCC2=CC(=O)C[C@@H](C)[C@]2(C)C1 [Nootkatone] | 4.10 |  |  |  |  |  |  |  |  |  |  |  |  |  | 4.05 | 4.01 | 3.96 | 3.92 | 3.88 | 3.57 | log Pow* (P′ 40%) [2, 5]: 3.46; log Pow* (P′ 50%) [2, 6]: 3.36; log Pow* (P′ 60%) [2, 7]: 3.28; log Pow* (P′ 70%) [2, 8]: 3.21; log Pow* (P′ 80%) [2, 9]: 3.15; log Pow* (P′ 90%) [2, 10]: 3.10; log Pow* (P′ 100%) [2, 11]: 3.05 |
| CCCCCCCC=O [Octanal] | 3.03 | 2.96 | 2.90 | 2.84 | 2.79 | 2.73 | 2.31 | 2.16 | 2.03 | 1.92 | 1.83 | 1.75 | 1.67 | 1.61 |  |  |  |  |  |  |  |

— US8394442B2, “Process for the preparation of a flavoring concentrate, and a flavoring concentrate” (SYMRISE AG, priority 2007, dated 2013)
